Measured values: ChEMBL document CHEMBL1671625, “Comparative in vitro anti-hepatitis C virus activities of a selected series of polymerase, protease, and helicase inhibitors” (Antimicrob Agents Chemother, 2008)

Key:
[1] = Cytotoxicity against human HuH6 cells after 3 days by MTT assay; assay type: cell-based
[2] = Cytotoxicity against human Huh-9-13 cells after 3 days by MTT assay; assay type: cell-based
[3] = Cytotoxicity against human Huh-Mono cells after 3 days by MTT assay; assay type: cell-based
[4] = tested on: Hepatitis C virus; experiment: Antiviral activity against Hepatitis C virus genotype 1b infected in human Huh5-2 cells assessed as reduction in replicon RNA after 4 days by luciferase assay; assay type: functional, organism-based, Hepacivirus hominis; conditions: Huh-5-2, 96 h
[5] = tested on: Hepatitis C virus; experiment: Antiviral activity against Hepatitis C virus genotype 1b infected in human Huh-9-13 cells assessed as reduction in replicon RNA after 4days by RT-qPCR analysis; assay type: functional, organism-based, Hepacivirus hominis; conditions: 96 h
[6] = tested on: Hepatitis C virus; experiment: Antiviral activity against Hepatitis C virus genotype 1b infected in human HuH6 cells assessed as reduction in replicon RNA after 4days by RT-qPCR analysis; assay type: functional, organism-based, Hepacivirus hominis; conditions: HuH-6, 96 h
[7] = tested on: Hepatitis C virus; experiment: Antiviral activity against Hepatitis C virus genotype 1b infected in human Huh-Mono cells assessed as reduction in replicon RNA after 4 days by RT-qPCR analysis; assay type: functional, organism-based, Hepacivirus hominis; conditions: 96 h
[8] = Cytotoxicity against human Huh5-2 cells after 3 days by MTT assay; assay type: cell-based, Huh-5-2

| EC50 [4] [nM] | EC50 [5] [nM] | EC50 [6] [nM] | EC50 [7] [nM] | SMILES | CC50 at 72 h [1] [nM] | CC50 at 72 h [2] [nM] | CC50 at 72 h [3] [nM] | CC50 at 72 h [8] [nM] |
| --- | --- | --- | --- | --- | --- | --- | --- | --- |
| 2100 | 1700 | 1100 | 5000 | C[C@@]1(F)[C@H](O)[C@@H](CO)O[C@@H]1n1ccc(N)nc1=O | > 33000 | > 33000 | > 33000 | > 33000 |
| 1100 | 1500 | 1200 | 800 | O=C(O)CNc1ccc(-c2ccc(Cl)cc2)c(COc2ccc(-c3nc4cc(C(=O)O)ccc4n3C3CCCCC3)cc2)c1 | 21000 | 24000 | 24000 | 21500 |
| 1800 | 600 | 11300 | 1800 | CC(C)CCn1c(=O)c(C2=NS(=O)(=O)c3ccccc3N2)c(O)c2ccccc21 | > 33000 | > 33000 | > 33000 | > 33000 |
| 1000 | 600 | 1000 | 1000 | CCC[C@H](NC(=O)[C@@H]1[C@H]2CCC[C@H]2CN1C(=O)[C@@H](NC(=O)[C@@H](NC(=O)c1cnccn1)C1CCCCC1)C(C)(C)C)C(=O)C(=O)NC1CC1 | 25000 | 24000 | > 33000 | > 33000 |
| 2000 | 400 | 700 | 700 | C[C@@]1(O)[C@H](O)[C@@H](CO)O[C@H]1n1ccc(N)nc1=O | > 33000 | 25000 | > 33000 | > 33000 |
| 120 | 400 | 290 | 1700 | C[C@@]1(O)[C@H](O)[C@@H](CO)O[C@H]1n1cnc2c(N)ncnc21 | > 33000 | 21000 | > 33000 | > 33000 |
| 1400 | 1600 | 6000 | 2200 | [N-]=[N+]=N[C@]1(CO)O[C@@H](n2ccc(N)nc2=O)[C@H](O)[C@@H]1O [4'-AZIDOCYTIDINE] | > 33000 | > 33000 | > 33000 | > 33000 |
|  | 130 |  | 2000 | CC(C)(C)NC(=O)N[C@H](C(=O)N1C[C@H]2[C@@H]([C@H]1C(=O)NC(CC1CCC1)C(=O)C(N)=O)C2(C)C)C(C)(C)C (some centres undefined) [BOCEPREVIR] | > 33000 | > 33000 | > 33000 | > 33000 |
| 300 | 500 | 240 | 300 | C/C=C/C[C@@H](C)[C@@H](O)[C@H]1C(=O)N[C@@H](CC)C(=O)N(C)CC(=O)N(C)[C@@H](CC(C)C)C(=O)N[C@@H](C(C)C)C(=O)N(C)[C@@H](CC(C)C)C(=O)N[C@@H](C)C(=O)N[C@H](C)C(=O)N(C)[C@@H](CC(C)C)C(=O)N(C)[C@@H](CC(C)C)C(=O)N(C)[C@@H](C(C)C)C(=O)N1C [CYCLOSPORINE] |  |  |  |  |
|  |  |  |  | O=C(O)c1cccs1 [THIOPHENE CARBOXYLIC ACID] | > 33000 | > 33000 | > 33000 | > 33000 |

| SMILES | EC50 [4] [nM] | EC50 [5] [nM] | EC50 [6] [nM] | EC50 [7] [nM] | CC50 at 72 h [1] [nM] | CC50 at 72 h [2] [nM] | CC50 at 72 h [3] [nM] | CC50 at 72 h [8] [nM] |
| --- | --- | --- | --- | --- | --- | --- | --- | --- |
| COc1ccc2c(O[C@@H]3C[C@H]4C(=O)N[C@]5(C(=O)O)C[C@H]5/C=C\CCCCC[C@H](NC(=O)OC5CCCC5)C(=O)N4C3)cc(-c3csc(NC(C)C)n3)nc2c1 | 40 | 15 | 4 | 10 | > 3000 | > 3000 | > 3000 | > 3000 |
| OC[C@H]1O[C@@H](n2nnc3cc(Cl)c(Cl)cc32)[C@H](O)[C@@H]1O | 10000 | 34000 | 12000 | 53000 | > 100000 | > 100000 | > 100000 | > 100000 |
| C/C=C/C[C@@H](C)[C@@H](O)[C@H]1C(=O)N[C@@H](CC)C(=O)N(C)[C@H](C)C(=O)N(CC)[C@@H](C(C)C)C(=O)N[C@@H](C(C)C)C(=O)N(C)[C@@H](CC(C)C)C(=O)N[C@@H](C)C(=O)N[C@H](C)C(=O)N(C)[C@@H](CC(C)C)C(=O)N(C)[C@@H](CC(C)C)C(=O)N(C)[C@@H](C(C)C)C(=O)N1C [ALISPORIVIR] | 60 |  | 50 | 40 | > 3000 | > 3000 | > 3000 | > 3000 |
| CNC(=O)c1c(-c2ccc(F)cc2)oc2cc(N(CCO)S(C)(=O)=O)c(C3CC3)cc12 [NESBUVIR] | 19 | 30 | 20 | 4 | > 33000 | > 33000 | > 33000 | > 33000 |
| Brc1c(Br)c(Br)c2[nH]nnc2c1Br [TETRABROMOBENZOTRIAZOLE] | 40000 | 65000 | 43000 | 61000 | > 100000 | > 100000 | > 100000 | > 100000 |
